Experimental findings from ChEMBL document CHEMBL1201862, “PubChem BioAssay data set” (2004) are described below.

Among the test systems are ACHN; BT-549; DU-145; HCC 2998; HCT-116; HL-60; HOP-62; Hs-578T; MDA-N; MOLT-4; OVCAR-3; OVCAR-4; SF-268; SF-539; SK-MEL-5; SR; SW-620; T47D; TK-10; UACC-62.
Test in all cases: NCI tumour cell line growth inhibition, 48 h

Several values for one entry are separate records, joined by “and”; a condition that tells them apart may be missing. Equal entries are not always repeated.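 96-well plates; 48 h exposure; 5 concentrations. Endpoints by linear interpolation between flanking doses. Not reached: highest tested concentration assigned. GI50 marks 50% less growth.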 Activity calls are given as the source filed them. Rule as the data show it: active = GI50 up to about 1.1 µM and inactive = higher.

In the case of `O=C(Cc1ccc(Cl)c(Cl)c1)NCCCN1CCN(CCCN2CCCCC2)CC1`, the GI50 with ACHN was 27.2 µM (inactive); in the test on BT-549 it was 21.9 µM (inactive); with DU-145, 40.5 µM (inactive); in the test with HCC 2998 it was 2.89 µM (inactive); in the test on HCT-116, 16.3 µM (inactive); with HL-60, 17.8 µM (inactive). In addition, the GI50 is 17 µM (inactive) in the test on HOP-62; 14.1 µM (inactive) with Hs-578T; 2.45 µM (inactive) with MDA-N; 10.9 µM (inactive) in the test with MOLT-4; 25.5 µM (inactive) in the test with OVCAR-3; 37.8 µM (inactive) with OVCAR-4. Besides, the GI50 was 19.5 µM (inactive) in the test on SF-268; 14.2 µM (inactive) in the test with SF-539; 10.4 µM (inactive) in the test on SK-MEL-5; 11.7 µM (inactive) in the test on SR; 19.9 µM (inactive) in the test on SW-620; 20.3 µM (inactive) with T47D. The GI50 in the test with TK-10 was 17.2 µM (inactive); in the test with UACC-62, 3.84 µM (inactive).
For the compound `Brc1c2c(c(Br)c3nsnc13)N=S=N2`, the GI50 was 24.7 µM (inactive) in the test with ACHN; 12.3 µM (inactive) in the test on BT-549; > 87.1 µM (inactive) with DU-145; > 58.6 µM (inactive) in the test with HCC 2998; 27.4 µM (inactive) with HCT-116; 3.83 µM (inactive) with HL-60. In addition, the GI50 in the test on HOP-62 is 3.48 µM (inactive); in the test on Hs-578T, 21 µM (inactive); with MDA-N it was 26.5 µM (inactive); with MOLT-4, 17.9 µM (inactive); in the test on OVCAR-3 it was 20.9 µM (inactive); in the test on OVCAR-4, 23.1 µM (inactive). In addition, the GI50 in the test with SF-268 is 26.3 µM (inactive); in the test on SF-539, 22.7 µM (inactive); in the test on SK-MEL-5 it was 20 µM (inactive); in the test on SR it was 4.82 µM (inactive); in the test on SW-620 it was 29 µM (inactive); with T47D it was 27.7 µM (inactive). The GI50 is 17.4 µM (inactive) in the test with TK-10 and 16.2 µM (inactive) in the test with UACC-62.
On to `Cc1cc2c(cc1Cl)SSc1cc(Cl)c(C)cc1S(=O)(=O)Nc1nc(N)nn1C(O)n1nc(N)nc1NS2(=O)=O`, for which the GI50 with ACHN, in the test on BT-549, in the test on DU-145, with HCC 2998, with HCT-116 and with HL-60 was > 10 µM (inactive) in each case. Moreover, the GI50 in the test with HOP-62, in the test on Hs-578T, with MDA-N, in the test on MOLT-4, in the test with OVCAR-3 and in the test with OVCAR-4 was > 10 µM (inactive) in each case. The GI50 with SF-268, in the test on SF-539, in the test on SK-MEL-5, in the test on SR, in the test with SW-620 and in the test on T47D was > 10 µM (inactive) in each case. The GI50 in the test on TK-10 was > 10 µM (inactive).
Take `COc1ccccc1CC1(O)OC(=O)c2ccccc21` (stereo unspecified): the GI50 with ACHN, in the test on BT-549, in the test on DU-145, in the test with HCC 2998, in the test on HCT-116 and with HL-60 was > 100 µM (inactive) throughout. Besides, the GI50 in the test with HOP-62, in the test on Hs-578T, with MDA-N, in the test with MOLT-4, in the test with OVCAR-3 and with OVCAR-4 was > 100 µM (inactive) each time. The GI50 in the test with SF-268, with SF-539, in the test on SK-MEL-5, with SR, in the test on SW-620 and with T47D was > 100 µM (inactive) in each case. The GI50 in the test on TK-10 and in the test with UACC-62 was > 100 µM (inactive) throughout.
Turning to `CC(C)(C)OC(=O)N1CCC2(C)CC(=O)CC=C12` (stereo unspecified), the GI50 in the test with ACHN is > 100 µM (inactive); with BT-549 it was > 100 µM (inactive); in the test with DU-145, > 100 µM (inactive); with HCC 2998, > 100 µM (inactive); in the test on HCT-116, 81.8 µM (inactive); in the test with HL-60, > 100 µM (inactive). Also, the GI50 with HOP-62, in the test with Hs-578T, in the test on MDA-N, with MOLT-4, in the test on OVCAR-3 and in the test on OVCAR-4 was > 100 µM (inactive) each time. Besides, the GI50 in the test with SF-268 was > 100 µM (inactive); in the test on SF-539, > 100 µM (inactive); with SK-MEL-5, > 100 µM (inactive); in the test on SR, 72.4 µM (inactive); in the test on SW-620, 67 µM (inactive); in the test on T47D, > 100 µM (inactive). Moreover, the GI50 with TK-10 and in the test on UACC-62 was > 100 µM (inactive) in each case.
As for `C=CCCCCNC(=O)C[C@@H]1C2=C(CC[C@H]1O[Si](C)(C)C(C)(C)C)N1C(=O)CCC/C=C\C1C2` (stereo partly specified), the GI50 with ACHN was 15.4 µM (inactive); in the test with BT-549, 16.6 µM (inactive); with DU-145 it was 15 µM (inactive); in the test with HCC 2998, 10.4 µM (inactive); in the test with HCT-116, 13.3 µM (inactive); in the test with HL-60, 1.84 µM (inactive). Moreover, the GI50 is 17.9 µM (inactive) with HOP-62; 16.1 µM (inactive) in the test on Hs-578T; 16.3 µM (inactive) with MDA-N; 5.89 µM (inactive) in the test with MOLT-4; 14 µM (inactive) in the test on OVCAR-3; 12.2 µM (inactive) in the test with OVCAR-4. For the same compound, the GI50 in the test with SF-268 is 15.5 µM (inactive); in the test on SF-539, 17.5 µM (inactive); in the test on SK-MEL-5, 14.1 µM (inactive); in the test on SR, 5.75 µM (inactive); with SW-620, 13.6 µM (inactive); in the test with T47D, 12.7 µM (inactive). Moreover, the GI50 was 16.1 µM (inactive) in the test with TK-10 and 12.9 µM (inactive) in the test on UACC-62.
With `CN(CCc1ccc(Cl)c(Cl)c1)CCN(C)CCN1CCCC1`, the GI50 was 21.2 µM (inactive) with ACHN; 16.7 µM (inactive) in the test with BT-549; 25.6 µM (inactive) in the test on DU-145; 1.96 µM (inactive) in the test with HCC 2998; 5.62 µM (inactive) with HCT-116; 13.4 µM (inactive) with HL-60. For the same compound, the GI50 is 15.1 µM (inactive) in the test with HOP-62; 17.5 µM (inactive) with Hs-578T; 1.79 µM (inactive) in the test on MDA-N; 3.6 µM (inactive) in the test with MOLT-4; 23.3 µM (inactive) in the test with OVCAR-3; 28.5 µM (inactive) with OVCAR-4. Moreover, the GI50 was 6.5 µM (inactive) in the test on SF-268; 4.08 µM (inactive) with SF-539; 2.51 µM (inactive) in the test on SK-MEL-5; 4.84 µM (inactive) in the test with SR; 12.1 µM (inactive) in the test on SW-620; 19.2 µM (inactive) in the test on T47D. The GI50 in the test with TK-10 is 13.3 µM (inactive); in the test on UACC-62, 1.98 µM (inactive).
`O=C1N/C(=N/N=C\C(O)C(O)C(O)C(O)CO)N/C1=C/c1ccc(Cl)cc1` (stereo unspecified): the GI50 is > 100 µM (inactive) in the test on ACHN; > 100 µM (inactive) in the test on BT-549; > 100 µM (inactive) in the test with DU-145; 95.7 µM (inactive) and 99.3 µM (inactive) in the test on HCC 2998; > 100 µM (inactive) in the test with HCT-116; 14.4 µM (inactive) and 23.8 µM (inactive) in the test with HL-60. In addition, the GI50 was > 100 µM (inactive) in the test on HOP-62; > 100 µM (inactive) in the test with Hs-578T; > 100 µM (inactive) in the test with MDA-N; 46 µM (inactive) and > 10 µM (inactive) in the test on MOLT-4; 43.6 µM (inactive) and 31.6 µM (inactive) with OVCAR-3; 37.2 µM (inactive) and 17.7 µM (inactive) in the test on OVCAR-4. The GI50 with SF-268 is > 100 µM (inactive) and 98.2 µM (inactive); in the test on SF-539, > 100 µM (inactive); in the test on SK-MEL-5, > 100 µM (inactive); with SR, 47.2 µM (inactive); in the test with SW-620, > 100 µM (inactive); in the test on T47D it was 49.7 µM (inactive) and 36.6 µM (inactive). For the same compound, the GI50 in the test with TK-10 is > 100 µM (inactive).
For the compound `CCCCNC(=S)c1ccc(OC(=O)Nc2ccc(Cl)cc2)cc1`, the GI50 in the test with ACHN is 70.6 µM (inactive); with BT-549, 20.6 µM (inactive); in the test with DU-145, > 100 µM (inactive); with HCC 2998, > 100 µM (inactive); in the test with HCT-116 it was 38.4 µM (inactive); in the test with HL-60 it was 8.57 µM (inactive). Further, the GI50 in the test on HOP-62 is > 100 µM (inactive); in the test with Hs-578T, 57.7 µM (inactive); in the test on MDA-N, > 100 µM (inactive); in the test with MOLT-4, 11.4 µM (inactive); in the test with OVCAR-3, 66.5 µM (inactive); in the test on OVCAR-4 it was 8.43 µM (inactive). The GI50 with SF-268 was 49.1 µM (inactive); with SF-539, > 100 µM (inactive); with SK-MEL-5, 20 µM (inactive); with SR, 16.3 µM (inactive); in the test with SW-620, > 100 µM (inactive); in the test with T47D it was 58.6 µM (inactive). In the test on UACC-62, the GI50 was 0.914 µM (active).
With `OCC(S)CS.[Bi]` (stereo unspecified), the GI50 in the test on ACHN is 16.5 µM (inactive); in the test on BT-549 it was 9.79 µM (inactive); in the test with DU-145, 18.3 µM (inactive); with HCC 2998 it was 13.6 µM (inactive); in the test with HCT-116, 17.7 µM (inactive); in the test on HL-60, 16.2 µM (inactive). In addition, the GI50 with HOP-62 was 19.1 µM (inactive); with Hs-578T it was 15.9 µM (inactive); in the test on MDA-N it was 14.1 µM (inactive); in the test with OVCAR-3, 10.8 µM (inactive); in the test on OVCAR-4, 23.6 µM (inactive); in the test on SF-268 it was 5.43 µM (inactive). Also, the GI50 is 15.4 µM (inactive) in the test on SF-539; 31.4 µM (inactive) in the test on SK-MEL-5; 4.06 µM (inactive) in the test on SR; 16 µM (inactive) in the test on SW-620; 8.89 µM (inactive) with T47D; 17.8 µM (inactive) with TK-10. The GI50 with UACC-62 was 17.9 µM (inactive).
